Source: US20250320206A1, “STAT6 DEGRADERS” (Gilead Sciences, Inc., priority 2024, published 2025)

Key:
[1] = molecular target: T1, STAT6 (Homo sapiens, UniProt P42226); assay: Stat6 Degrader Assay (HiBiT based, HeLa LgBiT clone 4.14); format: cell-based; conditions: HeLa LgBiT clone 4.14 HiBiT-STAT6, 4-24 h incubation; values given for compounds with >80% Emax; geometric mean; read-out: STAT6 degradation DC50
T1 construct: These cells express endogenous STAT6; host or cells: HeLa LgBiT clone 4.14
T1 sequence (P42226 1-847): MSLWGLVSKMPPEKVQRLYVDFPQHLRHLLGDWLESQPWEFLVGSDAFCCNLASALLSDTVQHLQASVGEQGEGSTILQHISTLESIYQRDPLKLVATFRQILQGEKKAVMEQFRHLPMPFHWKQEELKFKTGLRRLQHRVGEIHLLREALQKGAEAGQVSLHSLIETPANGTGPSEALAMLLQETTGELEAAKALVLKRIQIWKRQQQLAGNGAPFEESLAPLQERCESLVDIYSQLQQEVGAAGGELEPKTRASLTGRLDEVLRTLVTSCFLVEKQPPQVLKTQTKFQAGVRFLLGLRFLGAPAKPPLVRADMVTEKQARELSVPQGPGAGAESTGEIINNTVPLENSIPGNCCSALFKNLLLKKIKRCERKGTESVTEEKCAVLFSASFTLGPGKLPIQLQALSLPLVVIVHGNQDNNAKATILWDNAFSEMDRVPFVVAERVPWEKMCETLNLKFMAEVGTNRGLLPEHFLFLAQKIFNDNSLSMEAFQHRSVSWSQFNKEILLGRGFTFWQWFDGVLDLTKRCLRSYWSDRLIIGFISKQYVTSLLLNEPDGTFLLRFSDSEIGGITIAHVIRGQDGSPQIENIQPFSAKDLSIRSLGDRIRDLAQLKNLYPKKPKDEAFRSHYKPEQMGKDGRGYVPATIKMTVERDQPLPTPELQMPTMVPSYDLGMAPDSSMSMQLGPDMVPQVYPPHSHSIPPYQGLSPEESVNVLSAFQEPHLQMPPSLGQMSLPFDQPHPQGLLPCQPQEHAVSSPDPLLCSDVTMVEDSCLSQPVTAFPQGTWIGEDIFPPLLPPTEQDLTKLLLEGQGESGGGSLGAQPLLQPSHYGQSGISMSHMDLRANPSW
In short: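 HeLa LgBiT clone 4.14 cells with CRISPR HiBiT-tagged endogenous STAT6, 5000 cells/well, compound dosed then incubated 4-24 h at 37° C, 5% CO2. Nano-Glo substrate added, 0.5 h, luminescence read as non-degraded STAT6. Terfenadine 50 μM (cell kill) defines 100% degradation.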

[2] = system: Eotaxin-3 release in human whole blood stimulated with IL-4; assay: Human Whole Blood Eotaxin-3 Assay (IL-4 stimulated eotaxin-3 release); format: cell-based; conditions: IL-4 stimulation, 48 h, values given for compounds with >80% Emax, geometric mean
In short: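 Lithium-heparin human whole blood preincubated 2 h at 37° C with 4-fold serially diluted compounds (0.5% DMSO), then stimulated with recombinant human IL-4 ([…]) for 48 h. Eotaxin-3 (CCL26) in supernatant quantified by MSD immunoassay.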

DC50 [1] | EC50 [2] | SMILES
1.1 nM | 1.6 nM | CNc1cc(=O)n(-c2ccnc3c2cc([C@H](C)N2CC=C(c4c(F)cc(C(=O)N5CCC(CN6CCN(Cc7ccc8c(c7)n(C7CC7)c(=O)n8C7CCC(=O)NC7=O)C[C@@H]6C)CC5)cc4F)CC2)n3C)cc1F (stereo partly drawn) [Example 3u128, 3-(3-cyclopropyl-5-(((S)-4-((1-(3,5-difluoro-4-(1-((S)-1-(4-(5-fluoro-4-(methylamino)-2-oxopyridin-1 (2H)-yl)-1-methyl-1H-pyrrolo[2,3-b]pyridin-2-yl)ethyl)-1,2,3,6-tetrahydropyridin-4-yl)benzoyl)piperidin-4-yl)methyl)-3-methylpiperazin-1-yl)methyl)-2-oxo-2,3-dihydro-1H-benzo[d]imidazol-1-yl)piperidine-2,6-dione]
8.7 nM | 3.5 nM | CNc1cc(=O)n(-c2ccnc3c2cc(CN2CC=C(c4c(F)cc(C(=O)N5CCC(CN6CCN(Cc7ccc8c(c7)n(C)c(=O)n8[C@H]7CCC(=O)NC7=O)C[C@@H]6C)CC5)cc4F)CC2)n3C)cc1F (single isomer, unassigned) [Example 3u56]
3.2 nM | 1.3 nM | CNc1ccn(-c2ccnc3c2cc(CN2CCC(c4c(F)cc(C(=O)N5CCC(CN6CCN(Cc7ccc8c(c7)C7(CC7)C(=O)N8C7CCC(=O)NC7=O)C[C@@H]6C)CC5)cc4F)CC2)n3C)c(=O)n1 (stereo partly drawn) [Example 3h12, 3-(5′-(((S)-4-((1-(3,5-difluoro-4-(1-((1-methyl-4-(4-(methylamino)-2-oxopyrimidin-1 (2H)-yl)-1H-pyrrolo[2,3-b]pyridin-2-yl)methyl)piperidin-4-yl)benzoyl)piperidin-4-yl)methyl)-3-methylpiperazin-1-yl)methyl)-2′-oxospiro[cyclopropane-1,3′-indolin]-1′-yl)piperidine-2,6-dione]
0.7 nM | 19.3 nM | CNc1ccn(-c2ccnc3c2cc([C@H](C)N2CCC(c4ccc(C(=O)N5CCC(CN6CCN(Cc7ccc8c(c7)C7(CC7)C(=O)N8[C@H]7CCC(=O)NC7=O)C[C@@H]6C)CC5)cc4)CC2)n3C)c(=O)c1 (single isomer, unassigned) [Example 3u6]
33.8 nM | 27.6 nM | CNc1ccn(-c2ccnc3c2cc(CN2CCC(c4c(F)cc(C(=O)N5CCC(CN6CCN(c7ccc8c(c7)C7(CC7)C(=O)N8C7CCC(=O)NC7=O)CC6)CC5)cc4F)CC2)n3C)c(=O)c1 (stereo not shown) [Example 3u149, 3-(5′-(4-((1-(3,5-difluoro-4-(1-((1-methyl-4-(4-(methylamino)-2-oxopyridin-1 (2H)-yl)-1H-pyrrolo[2,3-b]pyridin-2-yl)methyl)piperidin-4-yl)benzoyl)piperidin-4-yl)methyl)piperazin-1-yl)-2′-oxospiro[cyclopropane-1,3′-indolin]-1′-yl)piperidine-2,6-dione]
0.6 nM | 0.8 nM | CNc1ccn(-c2ccnc3c2cc([C@H](C)N2CC=C(c4c(C)cc(C(=O)N5CCC(CN6CCN(Cc7cc8c(cc7F)n([C@H]7CCC(=O)NC7=O)c(=O)n8C)C[C@@H]6C)CC5)cc4F)CC2)n3C)c(=O)c1 (single isomer, unassigned) [Example 3u208]
1.3 nM | 1.5 nM | CNc1ccn(-c2ccnc3c2cc(CN2CCC(c4c(F)cc(C(=O)N5CCC(CN6CCN(Cc7ccc8c(c7)C7(CC7)C(=O)N8[C@@H]7CCC(=O)NC7=O)C[C@@H]6C)CC5)cc4F)CC2)n3C)c(=O)c1 (single isomer, unassigned) [Example 3u224]
0.4 nM | 0.2 nM | CNc1ccn(-c2ccnc3c2cc([C@H](C)N2CC=C(c4c(C)cc(C(=O)N5CCn6nc(CN7CCC(c8ccc9c(c8)n(C8CC8)c(=O)n9C8CCC(=O)NC8=O)CC7)cc6C5)cc4F)CC2)n3C)c(=O)c1 (stereo partly drawn) [Example 3u254, 3-(3-cyclopropyl-5-(1-((5-(3-fluoro-5-methyl-4-(1-((S)-1-(1-methyl-4-(4-(methylamino)-2-oxopyridin-1 (2H)-yl)-1H-pyrrolo[2,3-b]pyridin-2-yl)ethyl)-1,2,3,6-tetrahydropyridin-4-yl)benzoyl)-4,5,6,7-tetrahydropyrazolo[1,5-a]pyrazin-2-yl)methyl)piperidin-4-yl)-2-oxo-2,3-dihydro-1H-benzo[d]imidazol-1-yl)piperidine-2,6-dione]
15.4 nM | 107 nM | CNc1cc(=O)n(-c2ccnc3c2cc(CN2CC=C(c4c(F)cc(C(=O)N5CCC(CN6CCN(Cc7ccc8c(c7)C(C)(C)C(=O)N8[C@@H]7CCC(=O)NC7=O)C[C@@H]6C)CC5)cc4F)CC2)n3C)cc1F (single isomer, unassigned) [Example 3u79]
1.4 nM | 1 nM | Cc1cc(C(=O)N2CCC(CN3CCN(Cc4ccc5c(c4)n(C4CC4)c(=O)n5C4CCC(=O)NC4=O)CC3)CC2)cc(F)c1C1=CCN([C@@H](C)c2cc3c(-n4ccc5c(c4=O)CCN5)ccnc3n2C)CC1 (stereo partly drawn) [Example 3u140, 3-(3-cyclopropyl-5-((4-((1-(3-fluoro-5-methyl-4-(1-((S)-1-(1-methyl-4-(4-oxo-1,2,3,4-tetrahydro-5H-pyrrolo[3,2-c]pyridin-5-yl)-1H-pyrrolo[2,3-b]pyridin-2-yl)ethyl)-1,2,3,6-tetrahydropyridin-4-yl)benzoyl)piperidin-4-yl)methyl)piperazin-1-yl)methyl)-2-oxo-2,3-dihydro-1H-benzo[d]imidazol-1-yl)piperidine-2,6-dione]
10.9 nM | 27.5 nM | CNc1ccn(-c2ccnc3c2cc(CN2CCC(c4c(C)cc(C(=O)N5CCC(CN6CCN(Cc7ccc8c(c7)n(C)c(=O)n8[C@H]7CCC(=O)NC7=O)CC6)CC5)cc4F)CC2)n3C)c(=O)c1 (single isomer, unassigned) [Example 3u160]
